± gives the expanded uncertainty stated by the source.

This is an account of results in the NIST ThermoML archive (doi:10.1016/j.jct.2011.04.018).

The nature of the first data set: activity coefficient (dimensionless); of the first substance listed, at infinite dilution; xn = mol fraction of the nth substance listed. The conditions noted are these: 338.15 K; 101 kPa; Liquid; Chromatography; x1 = 0.
Take `c1ccsc1` [thiophene] + O=S(=O)([N-]S(=O)(=O)C(F)(F)F)C(F)(F)F.OCCC[n+]1ccccc1: the activity coefficient was 1.29 ± 0.08. On the same count and under the same terms, next, `Cc1ccccc1` [toluene] + O=S(=O)([N-]S(=O)(=O)C(F)(F)F)C(F)(F)F.OCCC[n+]1ccccc1: 2.38 ± 0.16; `O` [water] + O=S(=O)([N-]S(=O)(=O)C(F)(F)F)C(F)(F)F.OCCC[n+]1ccccc1: 1.33 ± 0.09.

Staying with this data set, now noted: 348.15 K; 101 kPa; Liquid; Chromatography; x1 = 0.
Regarding `C1CCCC1` [cyclopentane] + O=S(=O)([N-]S(=O)(=O)C(F)(F)F)C(F)(F)F.OCCC[n+]1ccccc1, the activity coefficient turned out to be 11.7 ± 0.8. The same measure, in the same setting: under `CCCCCCCCCC` [decane] + O=S(=O)([N-]S(=O)(=O)C(F)(F)F)C(F)(F)F.OCCC[n+]1ccccc1 stands 190 ± 13; under `CCOCC` [diethyl ether] + O=S(=O)([N-]S(=O)(=O)C(F)(F)F)C(F)(F)F.OCCC[n+]1ccccc1, 2.91 ± 0.2.

For `CCCOCCC` [dipropyl ether] + O=S(=O)([N-]S(=O)(=O)C(F)(F)F)C(F)(F)F.OCCC[n+]1ccccc1, the activity coefficient was determined as 8.99 ± 0.61. In the case of `CCO` [ethanol] + O=S(=O)([N-]S(=O)(=O)C(F)(F)F)C(F)(F)F.OCCC[n+]1ccccc1, the activity coefficient was 1.02 ± 0.06. On the same count and under the same terms, under `CCc1ccccc1` [ethylbenzene] + O=S(=O)([N-]S(=O)(=O)C(F)(F)F)C(F)(F)F.OCCC[n+]1ccccc1 stands 3.87 ± 0.26. `CCCCCCC` [heptane] + O=S(=O)([N-]S(=O)(=O)C(F)(F)F)C(F)(F)F.OCCC[n+]1ccccc1: the activity coefficient is 54.3 ± 3.7. The same measure, in the same setting: next, `C=CCCCC` [hex-1-ene] + O=S(=O)([N-]S(=O)(=O)C(F)(F)F)C(F)(F)F.OCCC[n+]1ccccc1: 17.3 ± 1.2; `CCCCCC` [hexane] + O=S(=O)([N-]S(=O)(=O)C(F)(F)F)C(F)(F)F.OCCC[n+]1ccccc1: 35.6 ± 2.4; `CO` [methanol] + O=S(=O)([N-]S(=O)(=O)C(F)(F)F)C(F)(F)F.OCCC[n+]1ccccc1: 0.776 ± 0.051. Same read-out and setting: next, `CC1CCCCC1` [methylcyclohexane] + O=S(=O)([N-]S(=O)(=O)C(F)(F)F)C(F)(F)F.OCCC[n+]1ccccc1: 26.8 ± 1.8. Still for that read-out and setting: under `CCCCCCCCC` [nonane] + O=S(=O)([N-]S(=O)(=O)C(F)(F)F)C(F)(F)F.OCCC[n+]1ccccc1 stands 125 ± 9; under `C=CCCCCCC` [oct-1-ene] + O=S(=O)([N-]S(=O)(=O)C(F)(F)F)C(F)(F)F.OCCC[n+]1ccccc1, 41.1 ± 2.8.

Take `CCCCCCCC` [octane] + O=S(=O)([N-]S(=O)(=O)C(F)(F)F)C(F)(F)F.OCCC[n+]1ccccc1: the activity coefficient amounted to 81.3 ± 5.6. Same read-out and setting: under `CCCC(C)=O` [pentan-2-one] + O=S(=O)([N-]S(=O)(=O)C(F)(F)F)C(F)(F)F.OCCC[n+]1ccccc1 stands 0.96 ± 0.06. The same measure, in the same setting: under `CCC(=O)CC` [pentan-3-one] + O=S(=O)([N-]S(=O)(=O)C(F)(F)F)C(F)(F)F.OCCC[n+]1ccccc1 stands 1.02 ± 0.06. Take `CCCCC` [pentane] + O=S(=O)([N-]S(=O)(=O)C(F)(F)F)C(F)(F)F.OCCC[n+]1ccccc1: the activity coefficient was found to be 24.3 ± 1.7. For the molecule `CCCO` [propan-1-ol] + O=S(=O)([N-]S(=O)(=O)C(F)(F)F)C(F)(F)F.OCCC[n+]1ccccc1, the activity coefficient worked out at 1.39 ± 0.09. The same measure, in the same setting: under `C1CCOC1` [tetrahydrofuran] + O=S(=O)([N-]S(=O)(=O)C(F)(F)F)C(F)(F)F.OCCC[n+]1ccccc1 stands 0.784 ± 0.051. As for `c1ccsc1` [thiophene] + O=S(=O)([N-]S(=O)(=O)C(F)(F)F)C(F)(F)F.OCCC[n+]1ccccc1, the activity coefficient turned out to be 1.29 ± 0.08. For `Cc1ccccc1` [toluene] + O=S(=O)([N-]S(=O)(=O)C(F)(F)F)C(F)(F)F.OCCC[n+]1ccccc1, the activity coefficient was determined as 2.39 ± 0.16. Same read-out and setting: under `O` [water] + O=S(=O)([N-]S(=O)(=O)C(F)(F)F)C(F)(F)F.OCCC[n+]1ccccc1 stands 1.24 ± 0.08.

The same data set, now with this note: 358.15 K; 101 kPa; Liquid; Chromatography; x1 = 0.
`C1CCCC1` [cyclopentane] + O=S(=O)([N-]S(=O)(=O)C(F)(F)F)C(F)(F)F.OCCC[n+]1ccccc1: the activity coefficient came to 11.1 ± 0.8.

For the molecule `CCCCCCCCCC` [decane] + O=S(=O)([N-]S(=O)(=O)C(F)(F)F)C(F)(F)F.OCCC[n+]1ccccc1, the activity coefficient was 168 ± 12. On the same count and under the same terms, next, `CCOCC` [diethyl ether] + O=S(=O)([N-]S(=O)(=O)C(F)(F)F)C(F)(F)F.OCCC[n+]1ccccc1: 2.97 ± 0.2.

Turning to `CCCOCCC` [dipropyl ether] + O=S(=O)([N-]S(=O)(=O)C(F)(F)F)C(F)(F)F.OCCC[n+]1ccccc1, the activity coefficient was 8.87 ± 0.61. The same measure, in the same setting: under `CCO` [ethanol] + O=S(=O)([N-]S(=O)(=O)C(F)(F)F)C(F)(F)F.OCCC[n+]1ccccc1 stands 0.984 ± 0.062; under `CCc1ccccc1` [ethylbenzene] + O=S(=O)([N-]S(=O)(=O)C(F)(F)F)C(F)(F)F.OCCC[n+]1ccccc1, 3.84 ± 0.26; under `CCCCCCC` [heptane] + O=S(=O)([N-]S(=O)(=O)C(F)(F)F)C(F)(F)F.OCCC[n+]1ccccc1, 49.4 ± 3.4. `C=CCCCC` [hex-1-ene] + O=S(=O)([N-]S(=O)(=O)C(F)(F)F)C(F)(F)F.OCCC[n+]1ccccc1: the activity coefficient was determined as 16.4 ± 1.1. For the molecule `CCCCCC` [hexane] + O=S(=O)([N-]S(=O)(=O)C(F)(F)F)C(F)(F)F.OCCC[n+]1ccccc1, the activity coefficient was 32.8 ± 2.2. The same measure, in the same setting: next, `CO` [methanol] + O=S(=O)([N-]S(=O)(=O)C(F)(F)F)C(F)(F)F.OCCC[n+]1ccccc1: 0.749 ± 0.049; `CC1CCCCC1` [methylcyclohexane] + O=S(=O)([N-]S(=O)(=O)C(F)(F)F)C(F)(F)F.OCCC[n+]1ccccc1: 24.7 ± 1.7; `CCCCCCCCC` [nonane] + O=S(=O)([N-]S(=O)(=O)C(F)(F)F)C(F)(F)F.OCCC[n+]1ccccc1: 111 ± 8.
